The results in this text go back to PubChem BioAssay (NCI).

Where “and” joins values, the source holds several entries; their conditions need not be identical. Equal entries are not always repeated.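 Exposure lasted 48 hours, with cells grown in 96-well plates and compounds tested at five concentrations. Abbreviation: GI50, concentration required for 50% inhibition of growth. TGI denotes the concentration required for complete inhibition of growth.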

Test systems include SW-620 colon; SF-295 CNS; SF-539 CNS; M14 melanoma; NCI-H226 lung; KM20L2 colon; SK-MEL-5 melanoma; SN12C renal; OVCAR-5 ovarian; A498 renal; HCT-116 colon; UO-31 renal.
What all share (assay): NCI anticancer screen, dose series, 48 h

As for `Nc1nc(SCc2ccc([N+](=O)[O-])cc2)nc2c1ncn2C1OC(COP(=O)(O)O)C(O)C1O` (centres undefined), the TGI in the assay on SW-620 colon, in the assay with SF-295 CNS, in the assay with SF-539 CNS, in the assay on M14 melanoma, in the assay on NCI-H226 lung and in the assay with KM20L2 colon was greater than 100 µM throughout. Moreover, the TGI with SK-MEL-5 melanoma, in the assay on SN12C renal, in the assay on OVCAR-5 ovarian, with A498 renal and in the assay on HCT-116 colon was greater than 100 µM each time.
As to `CC(NC(=O)C(C)NC(=O)C(N)CCP(C)(=O)O)C(=O)O` (centres undefined), the TGI in the assay with UO-31 renal, in the assay on SW-620 colon, in the assay on SF-295 CNS, in the assay with SF-539 CNS, in the assay with NCI-H226 lung and in the assay with KM20L2 colon was greater than 100 µM in each case. Besides, the TGI with SK-MEL-5 melanoma, in the assay with SN12C renal, in the assay on OVCAR-5 ovarian, with A498 renal and in the assay on HCT-116 colon was greater than 100 µM each time.
On to `C[Si](C)(OCCS(=O)(=O)O)C1(Cc2cccc3ccccc23)S(=O)(=O)OCCOS1(=O)=O`, for which the TGI with UO-31 renal was determined as 32.4 µM; in the assay with SW-620 colon it was 33.7 µM; in the assay with SF-295 CNS it was 69.9 µM; with SF-539 CNS it was 39.5 µM; in the assay on M14 melanoma it was 46.1 µM; in the assay with NCI-H226 lung, 45.8 µM. Besides, the TGI in the assay with SK-MEL-5 melanoma turned out to be 31.1 µM; in the assay with SN12C renal, 41.3 µM; in the assay with OVCAR-5 ovarian, 33.1 µM; with A498 renal it was 30.8 µM; in the assay with HCT-116 colon, 37.8 µM.
For `Cc1ccc(N2Cc3c(ccc4ccccc34)OP2(=O)Oc2ccc(Cl)c(C)c2)cc1` (centres undefined), the TGI in the assay on UO-31 renal, in the assay with SW-620 colon, in the assay on SF-295 CNS, in the assay with SF-539 CNS, with NCI-H226 lung and in the assay on KM20L2 colon was greater than 100 µM throughout. The TGI in the assay on SK-MEL-5 melanoma, in the assay with SN12C renal, with OVCAR-5 ovarian, with A498 renal and in the assay on HCT-116 colon was greater than 100 µM throughout.
As to `CC(C)OP(=O)(OC(C)C)/C(I)=N/Nc1ccc([N+](=O)[O-])cc1`, the TGI with UO-31 renal, in the assay on SW-620 colon, in the assay with SF-295 CNS, in the assay on SF-539 CNS, in the assay with M14 melanoma and in the assay with KM20L2 colon was greater than 100 µM each time. The TGI with SK-MEL-5 melanoma, in the assay on SN12C renal, in the assay with OVCAR-5 ovarian, in the assay on A498 renal and in the assay with HCT-116 colon was greater than 100 µM throughout.
`Cc1ccc(N=N/C(=N\NC(=O)c2ccc(C)cc2)c2ccc(N(CCC#N)CCC#N)cc2C)cc1`: the TGI with UO-31 renal was greater than 100 µM; in the assay with SW-620 colon, greater than 100 µM; in the assay on SF-295 CNS it was greater than 100 µM; with SF-539 CNS, 45.1 µM; in the assay with M14 melanoma, 91.8 µM; with NCI-H226 lung, greater than 100 µM. Further, the TGI with SK-MEL-5 melanoma, with OVCAR-5 ovarian and in the assay on A498 renal was greater than 100 µM throughout.
Turning to `N[C@H](C(=O)O)[C@H]1ON=C(Cl)[C@@H]1O`, the TGI in the assay with UO-31 renal was 441 µM; in the assay with SW-620 colon, greater than 550 µM; in the assay with SF-295 CNS it was greater than 550 µM; in the assay on SF-539 CNS it was greater than 362 µM; with M14 melanoma it was greater than 66.9 µM; in the assay with NCI-H226 lung, greater than 550 µM. In addition, the TGI with KM20L2 colon is greater than 394 µM; with SK-MEL-5 melanoma it was > 96.2 µM and 246 µM; with SN12C renal, greater than 550 µM; with OVCAR-5 ovarian it was greater than 166 µM; in the assay on A498 renal, 137 µM; with HCT-116 colon, greater than 550 µM. In addition, the GI50 was 8.09 µM with SW-620 colon; 2.83 µM in the assay on SF-295 CNS; 8.83 µM with SF-539 CNS; 61.8 µM with NCI-H226 lung; 4.39 µM in the assay with SK-MEL-5 melanoma; 13.6 µM with SN12C renal. The GI50 with OVCAR-5 ovarian was 13.8 µM; with HCT-116 colon, 4.4 µM.
On to `COc1ccc(-n2cnnc2-c2nsc3ccccc23)cc1`, for which the TGI in the assay with UO-31 renal, with SW-620 colon, in the assay with SF-539 CNS, with M14 melanoma, with KM20L2 colon and in the assay with SK-MEL-5 melanoma was greater than 100 µM throughout. Besides, the TGI in the assay with SN12C renal, in the assay with OVCAR-5 ovarian and in the assay on HCT-116 colon was greater than 100 µM each time.
For the molecule `CC1=Nc2nc(Cl)cn2C(=O)C1(Cl)Cl`, the TGI with UO-31 renal, in the assay with SW-620 colon, with SF-295 CNS, in the assay with SF-539 CNS, in the assay on M14 melanoma and with NCI-H226 lung was greater than 10 µM in each case. For the same molecule, the TGI with SK-MEL-5 melanoma, with SN12C renal, in the assay on OVCAR-5 ovarian, with A498 renal and in the assay on HCT-116 colon was greater than 10 µM throughout.
